Results: patent publication EP0443518A2, “Pharmaceutical containing episialo complex carbohydrate” (MECT CORPORATION, priority 1990, dated 1991)
Entries after “also recorded” stand apart in the source; their conditions may differ.

What was measured:
[1] = test system: sera derived from C57BL/6 female mice (9 weeks old) implanted with B16 melanoma cells; assay: ELISA: reactivity of serum of tumor-implanted mice with gangliosides; format: binding, mouse; conditions: for Reactivity of mouse serum: sera of mice implanted with B16 melanoma cells, 2 weeks after implantation, 100 ng ganglioside per well, absorbance at 490 nm, Fig. 2
Protocol: (§1) A serum was obtained by clotting of blood which was collected from a mouse retroorbitally (eyeground method) and removing the clotted blood by centrifugation.
(§2) ELISA assay was conducted by the conventional method.
(§3) 100 ng of each ganglioside dissolved in ethanol was added to each well of a 96-well microtiter plate and then allowed to stand at 37°C to remove ethanol completely. A blocking solution comprising a phosphate buffer solution (PBS) containing 5% of bovine serum albumin (BSA) or the like was added to the wells and the plate was incubated at 37°C for 2 hours. After the blocking solution was removed, the collected mouse serum was added to each well and the plate was incubated at 37°C for 1 hour. Each well was washed with a phosphate buffer solution containing 1% of BSA. Anti-mouse IgG, IgM and IgA antibodies which were labeled with peroxidase were added to each well and the plate was incubated at 37°C for 1 hour. Each well was washed with a phosphate buffer solution containing 1% of BSA. A substrate solution containing 400 µg/ml of o-phenylenediamine and 0.001% of hydrogen peroxide was added to each well, and the reaction was conducted at room temperature for 15 minutes. 8N sulfuric acid was added to stop the reaction and then the absorbance of the reaction mixture in each well was measured at 490 nm by using a spectrophotometer for a microtiter plate.
In Fig. 2, ●, △, ▲ and □ show the data with respect to a serum derived from a tumor the diameter of which is 5 mm or less, 6 mm, 8 mm and 16 mm, respectively.
Values shown in Fig. 1 and Fig. 2 were obtained by subtracting background values and taking the average of three wells.
Values shown in Fig. 3 were obtained by subtracting background values and taking the average of three wells.

[2] = test system: normal sera derived from C57BL/6 femal mice; assay: ELISA: reactivity of normal mouse serum with gangliosides; format: binding; conditions: C57BL/6 female mice 9 weeks old, 100 ng ganglioside per well, absorbance at 490 nm, Fig. 1
Protocol: as §1, §2
as §3, with “plate. […]” for “plate.”

[3] = test system: reactivity of mouse serum with epiGM₃; assay: ELISA: inhibition by acetylneuraminic acid of the reactivity of mouse serum with epiGM₃; format: binding; conditions: sodium N-acetylneuraminate solutions of various concentration added to serum of tumor-implanted mouse; Fig. 4
Protocol: as §3
Sodium N-acetylneuraminate solutions of various concentration were added to the same sera of mice as those used in the above (2). Values shown in Fig. 4 were obtained by subtracting background values and taking the average of three wells. […]

CCCCCCCCCCCCCC=CC(O)C(COC1OC(CO)C(OC2OC(CO)C(O)C(OC3(C(=O)O)CC(O)C(NC(C)=O)C(C(O)C(O)CO)O3)C2O)C(O)C1O)NC(=O)CCCCCCCCCCCCCCCCCCCCCCC (stereo not shown) [GM₃, reference compound]
Reactivity of mouse serum [1]: did not react | Reactivity of mouse serum [2]: did not react

CC(=O)N[C@H]1[C@H]([C@H](O)[C@H](O)CO)OC(O)(C(=O)O)C[C@@H]1O (stereo partly shown) [N-acetylneuraminic acid]
Inhibition of the reactivity of mouse serum with epiGM₃ [3]: inhibited

CCCCCCCCCCCCCC=CC(O)C(COC1OC(CO)C(OC2OC(CO)C(O)C(OC3(C(=O)O)CC(O)C(NC(C)=O)C(C(O)C(O)CO)O3)C2O)C(O)C1O)NC(=O)CCCCCCCCCCCCCCCCCCCCCCC (stereo not shown) [epiGM₃]
reaction level / reactivity compared with sera derived from normal mice ([1]; sera of mice implanted with B16 melanoma cells versus normal sera, Fig. 2 versus Fig. 1): remarkably increased; also recorded: stronger | Reactivity of mouse serum [1]: reacted | reactivity (rank among GM₃, epiGM₃, GM₄, epiGM₄, GM₅ and epiGM₅) ([1]; serum of the mouse with a 6 mm tumor, diluted 200 times, Fig. 3): strongest | Reactivity of mouse serum [2]: reacted
